Patent US20260284208A1, “SYSTEM” (Oxford University Innovation Limited, priority 2023, published 2026)

What was measured:
[1] = tested on: library of 8,380 IKZF3 degrons (ZF-eGFP/mCherry reporter) in Jurkat cells; test: Pooled library screen (FACS, NGS, limma voom LogFC of positive vs negative read counts); format: cell-based, human
Method in brief: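 Cells were lentivirally transduced at MOI <0.3, and mCherry+ cells were sorted 6 days later. Eight days after sorting, cells were treated with DMSO or thalidomide analog for 18 h at 37 °C. mCherry+GFPlow (DMSO-set gate, DAPI-excluded) and remaining cells were sorted, and degrons were PCR-amplified from gDNA and sequenced (>600× coverage, 3 biological replicates).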

[2] = biological target: Q147A mutated ZF (ANQS) fused to eGFP (Homo sapiens, UniProt Q96SW2+Q9UKT9, Q147A); test: GFP degradation flow cytometry assay, Q147A mutant ZF-eGFP; format: cell-based
Q147A mutated ZF (ANQS) fused to eGFP, sequence (Q9UKT9 130-189 Q147A): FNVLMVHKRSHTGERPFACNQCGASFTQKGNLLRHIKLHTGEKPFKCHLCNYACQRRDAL
Q147A mutated ZF (ANQS) fused to eGFP, sequence (Q96SW2 whole entry, the tested form may be a part): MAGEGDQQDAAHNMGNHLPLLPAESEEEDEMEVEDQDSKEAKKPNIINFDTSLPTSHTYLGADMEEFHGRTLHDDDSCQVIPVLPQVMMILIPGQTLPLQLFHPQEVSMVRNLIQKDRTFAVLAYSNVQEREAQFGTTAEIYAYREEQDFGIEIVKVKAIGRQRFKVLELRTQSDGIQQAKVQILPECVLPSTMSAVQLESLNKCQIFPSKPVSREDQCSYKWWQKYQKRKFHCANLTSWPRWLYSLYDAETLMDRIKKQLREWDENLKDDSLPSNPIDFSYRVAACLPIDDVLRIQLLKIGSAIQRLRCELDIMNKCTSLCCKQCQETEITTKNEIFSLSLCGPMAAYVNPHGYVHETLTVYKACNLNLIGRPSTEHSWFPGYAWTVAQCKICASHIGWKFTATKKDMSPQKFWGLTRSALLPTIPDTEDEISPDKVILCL
Experimental: Jurkat cells were added to 96 well U-bottom assay plates (Falcon) at 1×10^5 cells per well and treated with compounds for 18 hours at 37° C. and 5% CO2. Cells were stained with 1 μg/mL DAPI (ThermoFisher) and acquired on a Cytoflex S (Beckman Coulter). Data was analysed using FlowJo 10.8.1 (BD).
To probe the potential for orthogonality in a bump-and-hole context, the same assay was carried out again on all compounds, but this time with a Q147A mutated ZF.
The pDC50 values derived from this screen were used along with the pDC50 values from the WT screen to assign an orthogonality index value to every compound according the following equation: […]

CN1CCN(c2ccc3c(c2)C(=O)N(C2CCC(=O)NC2=O)C3=O)CC1 (stereo not shown) [B08, 2-(2,6-dioxopiperidin-3-yl)-5-(4-methylpiperazin-1-yl)isoindoline-1,3-dione]
B08_logFC ([1]; Degron-ID 3476, SEQ ID NO 2339, 46F_47S_49E_50V_52G_53A_54T_55F_67L): 2.705 | B08_logFC ([1]; Degron-ID 3600, SEQ ID NO 2322, 46F_47T_49D_50I_52G_53A_54A_55F_67L): 2.751 | B08_logFC ([1]; Degron-ID 3732, SEQ ID NO 2280, 46F_47T_49N_50I_52G_53A_54P_55F_67L): 2.855 | B08_logFC ([1]; Degron-ID 3820, SEQ ID NO 2304, 46F_47T_49P_50V_52G_53A_54A_55F_67L): 2.797 | B08_logFC ([1]; Degron-ID 3832, SEQ ID NO 2318, 46F_47T_49P_50V_52G_53A_54P_55F_67L): 2.762 | B08_logFC ([1]; Degron-ID 3892, SEQ ID NO 2316, 46F_47V_49D_50V_52G_53A_54P_55F_67L): 2.764 | B08_logFC ([1]; Degron-ID 3900, SEQ ID NO 2351, 46F_47V_49E_50I_52G_53A_54A_55F_67L): 2.675 | B08_logFC ([1]; Degron-ID 3905, SEQ ID NO 2298, 46F_47V_49E_50I_52G_53A_54G_55F_67L): 2.805 | B08_logFC ([1]; Degron-ID 3955, SEQ ID NO 2295, 46F_47V_49E_50V_52G_53A_54S_55F_67L): 2.815 | B08_logFC ([1]; Degron-ID 4129, SEQ ID NO 2331, 46F_47W_49D_50V_52G_53A_54L_55F_67L): 2.733 | B08_logFC ([1]; Degron-ID 4132, SEQ ID NO 2320, 46F_47W_49D_50V_52G_53A_54P_55F_67L): 2.758 | B08_logFC ([1]; Degron-ID 4158, SEQ ID NO 2311, 46F_47W_49E_50I_52G_53A_54W_55F_67L): 2.771 | B08_logFC ([1]; Degron-ID 4168, SEQ ID NO 2309, 46F_47W_49E_50Q_52G_53A_54K_55F_67L): 2.774 | B08_logFC ([1]; Degron-ID 4182, SEQ ID NO 2288, 46F_47W_49E_50V_52G_53A_54D_55F_67L): 2.825 | B08_logFC ([1]; Degron-ID 4259, SEQ ID NO 2276, 46F_47W_49N_50V_52G_53A_54Y_55F_67L): 2.879 | B08_logFC ([1]; Degron-ID 4262, SEQ ID NO 2312, 46F_47W_49P_50I_52G_53A_54D_55F_67L): 2.769 | B08_logFC ([1]; Degron-ID 4269, SEQ ID NO 2299, 46F_47W_49P_50I_52G_53A_54L_55F_67L): 2.805 | B08_logFC ([1]; Degron-ID 4294, SEQ ID NO 2296, 46F_47W_49P_50Q_52G_53A_54R_55F_67L): 2.812 | B08_logFC ([1]; Degron-ID 4325, SEQ ID NO 2330, 46F_47Y_49D_50I_52G_53A_54G_55F_67L): 2.741 | B08_logFC ([1]; Degron-ID 4368, SEQ ID NO 2270, 46F_47Y_49D_50V_52G_53A_54K_55F_67L): 2.897 | B08_logFC ([1]; Degron-ID 4374, SEQ ID NO 2335, 46F_47Y_49D_50V_52G_53A_54R_55F_67L): 2.715 | B08_logFC ([1]; Degron-ID 4377, SEQ ID NO 2302, 46F_47Y_49D_50V_52G_53A_54V_55F_67L): 2.8 | B08_logFC ([1]; Degron-ID 4384, SEQ ID NO 2279, 46F_47Y_49E_50I_52G_53A_54F_55F_67L): 2.859 | B08_logFC ([1]; Degron-ID 4400, SEQ ID NO 2269, 46F_47Y_49E_50Q_52G_53A_54A_55F_67L): 2.899 | B08_logFC ([1]; Degron-ID 4413, SEQ ID NO 2317, 46F_47Y_49E_50Q_52G_53A_54Q_55F_67L): 2.763 | B08_logFC ([1]; Degron-ID 4415, SEQ ID NO 2272, 46F_47Y_49E_50Q_52G_53A_54S_55F_67L): 2.888 | B08_logFC ([1]; Degron-ID 4445, SEQ ID NO 2347, 46F_47Y_49N_50I_52G_53A_54G_55F_67L): 2.678 | B08_logFC ([1]; Degron-ID 4493, SEQ ID NO 2313, 46F_47Y_49N_50V_52G_53A_54Q_55F_67L): 2.769 | B08_logFC ([1]; Degron-ID 4495, SEQ ID NO 2266, 46F_47Y_49N_50V_52G_53A_54S_55F_67L): 2.902 | B08_logFC ([1]; Degron-ID 4508, SEQ ID NO 2306, 46F_47Y_49P_50I_52G_53A_54K_55F_67L): 2.789 | B08_logFC ([1]; Degron-ID 4509, SEQ ID NO 2274, 46F_47Y_49P_50I_52G_53A_54L_55F_67L): 2.886 | B08_logFC ([1]; Degron-ID 4536, SEQ ID NO 2353, 46F_47Y_49P_50Q_52G_53A_54T_55F_67L): 2.667 | B08_logFC ([1]; Degron-ID 4543, SEQ ID NO 2292, 46F_47Y_49P_50V_52G_53A_54E_55F_67L): 2.819 | B08_logFC ([1]; Degron-ID 4550, SEQ ID NO 2352, 46F_47Y_49P_50V_52G_53A_54M_55F_67L): 2.668 | B08_logFC ([1]; Degron-ID 6545, SEQ ID NO 2345, 46L_47F_49P_50I_52G_53F_54G_55C_67L): 2.683 | B08_logFC ([1]; Degron-ID 6550, SEQ ID NO 2301, 46L_47F_49P_50I_52G_53F_54M_55C_67L): 2.8 | B08_logFC ([1]; Degron-ID 6559, SEQ ID NO 2357, 46L_47F_49P_50I_52G_53F_54Y_55C_67L): 2.661 | B08_logFC ([1]; Degron-ID 6755, SEQ ID NO 2278, 46L_47S_49P_50I_52G_53F_54S_55C_67L): 2.86 | B08_logFC ([1]; Degron-ID 6775, SEQ ID NO 2332, 46L_47T_49P_50I_52G_53F_54S_55C_67L): 2.73 | B08_logFC ([1]; Degron-ID 6795, SEQ ID NO 2300, 46L_47V_49P_50I_52G_53F_54S_55C_67L): 2.801 | B08_logFC ([1]; Degron-ID 6824, SEQ ID NO 2285, 46L_47Y_49P_50I_52G_53F_54F_55C_67L): 2.841 | B08_logFC ([1]; Degron-ID 6834, SEQ ID NO 2344, 46L_47Y_49P_50I_52G_53F_54R_55C_67L): 2.685 | B08_logFC ([1]; Degron-ID 7574, SEQ ID NO 2310, 46F_47W_49E_50I_52G_53R_54R_55F_67L): 2.772 | B08_logFC ([1]; Degron-ID 7616, SEQ ID NO 2308, 46L_47A_49E_50I_52G_53F_54T_55C_67L): 2.779 | B08_logFC ([1]; Degron-ID 7636, SEQ ID NO 2363, 46L_47C_49E_50I_52G_53F_54T_55C_67L): 2.644 | B08_logFC ([1]; Degron-ID 7736, SEQ ID NO 2325, 46L_47H_49E_50I_52G_53F_54T_55C_67L): 2.749 | B08_logFC ([1]; Degron-ID 7915, SEQ ID NO 2362, 46L_47T_49E_50I_52G_53F_54S_55C_67L): 2.649 | B08_logFC ([1]; Degron-ID 7964, SEQ ID NO 2360, 46L_47Y_49E_50I_52G_53F_54F_55C_67L): 2.653 | B08_logFC ([1]; Degron-ID 7971, SEQ ID NO 2297, 46L_47Y_49E_50I_52G_53F_54N_55C_67L): 2.807 | position of the WT sequence in the volcano plot of the library screen ([1]; WT ZF sequence): far away from the ‘hits’ region | orthogonality index value (from pDC50 Q147A and pDC50 WT) ([2]; Q147A vs WT ZF, compounds with Q147A Dmax >=0.4 dismissed, 1080 min): > 10 | degradation against Q147A relative to WT ([2]; flow cytometry, pDC50 comparison): improved degradation
